The numbers were not newly measured in patent publication US6391849B1, “Method and pharmaceutical composition for disrupting lactation in a mammary gland and for treating and preventing mastitis” (Agricultural Research Organization, The Volcani Center, priority 1999, dated 2002), which cites them from elsewhere.

In the data set the test system is mammary gland. The settings on record: EGTA introduced into the mammary gland.

Turning to `O=C(O)CN(CCOCCOCCN(CC(=O)O)CC(=O)O)CC(=O)O` [EGTA], the TJ integrity result is “transient loss” and the milk yield entry is reported as “transient reduction”.
